Biological target: KDM3B (Homo sapiens, UniProt Q7LBC6)
Assay: competitive inhibition of purified recombinant KDM3B
Assay type: biochemical

Sequence of KDM3B (Q7LBC6 whole entry): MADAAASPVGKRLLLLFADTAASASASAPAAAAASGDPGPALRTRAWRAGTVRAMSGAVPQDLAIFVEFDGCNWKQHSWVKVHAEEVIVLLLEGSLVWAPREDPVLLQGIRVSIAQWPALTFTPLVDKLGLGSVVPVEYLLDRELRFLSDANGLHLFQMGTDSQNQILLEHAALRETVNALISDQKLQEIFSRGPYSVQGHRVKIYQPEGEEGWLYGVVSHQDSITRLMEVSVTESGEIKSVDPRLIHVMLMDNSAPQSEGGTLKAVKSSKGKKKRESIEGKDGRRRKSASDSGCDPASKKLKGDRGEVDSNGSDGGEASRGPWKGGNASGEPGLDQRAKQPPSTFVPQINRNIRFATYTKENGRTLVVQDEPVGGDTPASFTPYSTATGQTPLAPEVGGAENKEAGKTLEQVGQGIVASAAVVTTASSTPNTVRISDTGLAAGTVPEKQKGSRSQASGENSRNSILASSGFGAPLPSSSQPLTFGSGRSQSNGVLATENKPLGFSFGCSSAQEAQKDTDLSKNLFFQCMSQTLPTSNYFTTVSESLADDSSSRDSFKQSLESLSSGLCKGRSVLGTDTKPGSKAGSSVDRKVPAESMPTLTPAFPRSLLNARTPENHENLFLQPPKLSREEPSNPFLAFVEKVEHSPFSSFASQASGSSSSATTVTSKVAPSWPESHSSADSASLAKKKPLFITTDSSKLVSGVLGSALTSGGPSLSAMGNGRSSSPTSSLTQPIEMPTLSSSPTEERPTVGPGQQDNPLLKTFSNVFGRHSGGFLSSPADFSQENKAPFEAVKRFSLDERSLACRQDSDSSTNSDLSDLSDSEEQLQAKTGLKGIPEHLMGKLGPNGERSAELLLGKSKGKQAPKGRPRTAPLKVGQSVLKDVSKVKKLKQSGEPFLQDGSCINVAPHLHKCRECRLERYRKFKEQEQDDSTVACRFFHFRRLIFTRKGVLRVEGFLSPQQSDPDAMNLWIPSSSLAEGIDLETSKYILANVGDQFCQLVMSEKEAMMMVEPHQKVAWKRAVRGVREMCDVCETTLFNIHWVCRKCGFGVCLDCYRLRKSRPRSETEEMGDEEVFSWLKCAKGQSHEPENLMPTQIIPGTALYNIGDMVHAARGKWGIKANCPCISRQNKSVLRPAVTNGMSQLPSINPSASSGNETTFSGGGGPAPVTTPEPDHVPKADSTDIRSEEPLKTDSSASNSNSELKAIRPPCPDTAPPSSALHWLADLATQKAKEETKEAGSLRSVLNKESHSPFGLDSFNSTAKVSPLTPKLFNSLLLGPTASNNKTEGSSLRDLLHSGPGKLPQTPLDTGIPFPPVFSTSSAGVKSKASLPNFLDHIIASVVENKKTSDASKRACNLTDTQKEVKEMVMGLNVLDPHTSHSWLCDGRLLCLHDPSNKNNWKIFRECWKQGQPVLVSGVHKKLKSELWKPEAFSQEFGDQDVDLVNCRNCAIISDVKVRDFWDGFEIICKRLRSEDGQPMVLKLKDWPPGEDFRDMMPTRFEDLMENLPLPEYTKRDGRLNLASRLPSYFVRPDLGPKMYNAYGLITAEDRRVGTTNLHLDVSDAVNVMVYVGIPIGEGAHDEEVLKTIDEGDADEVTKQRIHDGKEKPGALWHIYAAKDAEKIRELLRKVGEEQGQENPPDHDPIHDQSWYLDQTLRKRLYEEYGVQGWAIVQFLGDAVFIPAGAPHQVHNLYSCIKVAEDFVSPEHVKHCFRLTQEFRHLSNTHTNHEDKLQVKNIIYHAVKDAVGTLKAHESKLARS

O=C(O)CCC(O)C(=O)O (stereo not shown) [R-2HG]
IC50: ~2460 µM

Reference: paper PMC11407783 (Nature cell biology, 2023)
